Assay results reported in ChEMBL document CHEMBL3991601, “The target landscape of clinical kinase drugs” (Science, 2017).
Active and inactive are the calls of the source. Rule as the data show it, for most assays here: actives have a measured Kd and inactives only a lower limit.

Assays:
Ephrin type-A receptor 1 = target: T1, Ephrin type-A receptor 1 (Homo sapiens, UniProt P21709)
T1 sequence (P21709 whole entry): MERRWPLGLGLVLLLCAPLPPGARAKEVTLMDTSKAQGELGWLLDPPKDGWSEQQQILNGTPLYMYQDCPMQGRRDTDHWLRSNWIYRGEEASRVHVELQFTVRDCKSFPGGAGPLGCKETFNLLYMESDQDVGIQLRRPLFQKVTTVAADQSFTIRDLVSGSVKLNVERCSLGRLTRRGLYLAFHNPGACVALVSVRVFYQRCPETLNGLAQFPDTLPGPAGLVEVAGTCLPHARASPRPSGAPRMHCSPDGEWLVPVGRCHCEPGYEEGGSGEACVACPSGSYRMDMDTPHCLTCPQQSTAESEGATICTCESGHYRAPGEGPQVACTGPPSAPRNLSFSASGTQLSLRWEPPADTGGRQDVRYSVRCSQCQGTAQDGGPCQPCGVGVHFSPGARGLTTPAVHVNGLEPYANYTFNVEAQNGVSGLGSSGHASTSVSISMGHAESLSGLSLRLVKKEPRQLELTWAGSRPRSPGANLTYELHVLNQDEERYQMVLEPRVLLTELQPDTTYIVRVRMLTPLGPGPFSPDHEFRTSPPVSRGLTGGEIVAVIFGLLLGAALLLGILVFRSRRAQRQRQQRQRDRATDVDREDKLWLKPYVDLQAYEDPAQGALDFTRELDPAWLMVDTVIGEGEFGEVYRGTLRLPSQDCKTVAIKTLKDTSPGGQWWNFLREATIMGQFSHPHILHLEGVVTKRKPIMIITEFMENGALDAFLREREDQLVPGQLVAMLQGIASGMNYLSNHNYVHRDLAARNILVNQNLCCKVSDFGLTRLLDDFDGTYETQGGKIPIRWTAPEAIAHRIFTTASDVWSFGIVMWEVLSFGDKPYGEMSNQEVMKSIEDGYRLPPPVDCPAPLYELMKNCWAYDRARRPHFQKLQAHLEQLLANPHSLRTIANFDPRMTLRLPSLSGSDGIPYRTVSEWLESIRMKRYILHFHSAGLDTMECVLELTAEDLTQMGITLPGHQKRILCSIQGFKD

[1] = target: Dual specificity protein kinase CLK4 (Homo sapiens, UniProt Q9HAZ1)
Chain of Dual specificity protein kinase CLK4 (Q9HAZ1 whole entry): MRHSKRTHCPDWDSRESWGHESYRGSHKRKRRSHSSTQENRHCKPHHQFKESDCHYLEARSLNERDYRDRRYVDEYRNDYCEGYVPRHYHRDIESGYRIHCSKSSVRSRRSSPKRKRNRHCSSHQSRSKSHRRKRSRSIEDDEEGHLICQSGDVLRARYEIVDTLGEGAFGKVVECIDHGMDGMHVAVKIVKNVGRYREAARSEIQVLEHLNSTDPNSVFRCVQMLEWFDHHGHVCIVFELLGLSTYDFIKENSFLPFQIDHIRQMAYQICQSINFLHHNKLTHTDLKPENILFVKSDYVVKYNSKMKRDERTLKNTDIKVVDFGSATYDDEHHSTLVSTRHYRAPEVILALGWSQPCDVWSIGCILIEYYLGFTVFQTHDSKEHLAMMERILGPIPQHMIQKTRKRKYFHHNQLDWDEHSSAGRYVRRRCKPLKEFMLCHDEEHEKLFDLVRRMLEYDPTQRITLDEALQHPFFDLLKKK

[2] = target: T2, MAP/microtubule affinity-regulating kinase 4 (Homo sapiens, UniProt Q96L34)
T2 sequence (Q96L34 whole entry): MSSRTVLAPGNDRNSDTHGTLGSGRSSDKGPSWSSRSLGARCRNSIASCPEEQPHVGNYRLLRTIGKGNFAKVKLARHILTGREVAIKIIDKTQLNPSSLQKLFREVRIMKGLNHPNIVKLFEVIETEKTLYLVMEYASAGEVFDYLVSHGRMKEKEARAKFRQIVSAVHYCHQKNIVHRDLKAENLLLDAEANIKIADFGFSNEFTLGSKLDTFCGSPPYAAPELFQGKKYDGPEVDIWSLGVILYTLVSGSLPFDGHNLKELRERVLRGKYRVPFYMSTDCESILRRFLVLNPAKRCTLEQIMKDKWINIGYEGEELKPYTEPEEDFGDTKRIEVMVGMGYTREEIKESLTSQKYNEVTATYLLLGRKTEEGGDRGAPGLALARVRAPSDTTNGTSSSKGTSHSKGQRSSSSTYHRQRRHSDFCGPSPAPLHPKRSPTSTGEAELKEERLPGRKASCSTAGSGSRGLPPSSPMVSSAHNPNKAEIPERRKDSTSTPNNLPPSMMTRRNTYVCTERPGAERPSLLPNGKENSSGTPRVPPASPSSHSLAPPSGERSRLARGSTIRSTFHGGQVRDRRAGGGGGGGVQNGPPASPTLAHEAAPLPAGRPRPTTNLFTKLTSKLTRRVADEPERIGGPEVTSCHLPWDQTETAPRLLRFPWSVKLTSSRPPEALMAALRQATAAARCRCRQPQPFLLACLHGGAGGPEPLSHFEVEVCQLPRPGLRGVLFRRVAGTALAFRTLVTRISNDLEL

[3] = target: Serine/threonine-protein kinase PAK 6 (Homo sapiens, UniProt Q9NQU5)
Chain of Serine/threonine-protein kinase PAK 6 (Q9NQU5 whole entry): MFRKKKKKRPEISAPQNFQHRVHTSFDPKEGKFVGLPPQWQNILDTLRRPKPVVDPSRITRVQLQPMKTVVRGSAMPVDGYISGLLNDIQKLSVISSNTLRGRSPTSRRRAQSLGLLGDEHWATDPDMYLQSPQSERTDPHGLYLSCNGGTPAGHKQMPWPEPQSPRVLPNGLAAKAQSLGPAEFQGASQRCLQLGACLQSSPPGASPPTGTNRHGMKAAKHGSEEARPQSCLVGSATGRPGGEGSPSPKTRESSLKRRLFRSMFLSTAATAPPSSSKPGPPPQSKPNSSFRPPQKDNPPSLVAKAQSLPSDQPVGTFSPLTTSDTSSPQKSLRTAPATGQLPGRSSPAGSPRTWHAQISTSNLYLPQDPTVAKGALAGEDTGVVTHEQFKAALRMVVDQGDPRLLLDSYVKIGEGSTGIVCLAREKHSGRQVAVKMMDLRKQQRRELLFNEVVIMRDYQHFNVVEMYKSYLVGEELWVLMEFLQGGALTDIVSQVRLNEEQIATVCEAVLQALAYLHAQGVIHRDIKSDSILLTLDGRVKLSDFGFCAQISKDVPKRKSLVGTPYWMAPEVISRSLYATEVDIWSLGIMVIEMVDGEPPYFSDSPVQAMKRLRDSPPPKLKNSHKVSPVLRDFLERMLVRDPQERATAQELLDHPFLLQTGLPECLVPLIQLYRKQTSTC

[4] = target: T3, Receptor-type tyrosine-protein kinase FLT3 (Homo sapiens, UniProt P36888)
T3 sequence (P36888 whole entry): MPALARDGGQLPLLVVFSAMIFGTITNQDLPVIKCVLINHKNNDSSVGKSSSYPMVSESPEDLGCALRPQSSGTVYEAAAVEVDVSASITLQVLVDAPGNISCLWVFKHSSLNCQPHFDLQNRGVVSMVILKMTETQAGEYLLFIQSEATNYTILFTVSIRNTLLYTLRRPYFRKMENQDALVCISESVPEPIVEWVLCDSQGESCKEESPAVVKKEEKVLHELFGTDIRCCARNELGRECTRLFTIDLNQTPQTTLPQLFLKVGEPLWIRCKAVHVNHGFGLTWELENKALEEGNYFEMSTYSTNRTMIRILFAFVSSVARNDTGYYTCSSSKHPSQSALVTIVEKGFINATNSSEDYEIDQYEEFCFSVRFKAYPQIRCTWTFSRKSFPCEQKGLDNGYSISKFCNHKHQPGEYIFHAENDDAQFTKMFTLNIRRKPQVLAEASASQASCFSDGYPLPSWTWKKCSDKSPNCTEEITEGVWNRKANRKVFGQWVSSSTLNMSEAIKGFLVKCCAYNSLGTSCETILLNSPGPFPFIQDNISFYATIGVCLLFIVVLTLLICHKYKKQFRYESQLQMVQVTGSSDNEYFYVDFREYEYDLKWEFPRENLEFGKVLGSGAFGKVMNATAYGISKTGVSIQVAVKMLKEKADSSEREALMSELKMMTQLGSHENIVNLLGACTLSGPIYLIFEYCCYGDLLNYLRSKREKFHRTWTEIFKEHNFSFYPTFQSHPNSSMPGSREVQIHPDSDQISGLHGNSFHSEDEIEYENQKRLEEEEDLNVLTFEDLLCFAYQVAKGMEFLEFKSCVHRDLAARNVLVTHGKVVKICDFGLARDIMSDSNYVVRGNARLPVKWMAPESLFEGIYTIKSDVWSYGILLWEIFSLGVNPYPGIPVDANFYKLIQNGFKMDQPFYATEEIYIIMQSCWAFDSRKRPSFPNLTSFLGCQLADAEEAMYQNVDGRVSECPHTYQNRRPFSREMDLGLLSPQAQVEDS

[5] = target: Cyclin-dependent kinase 17 (Homo sapiens, UniProt Q00537)
Chain of Cyclin-dependent kinase 17 (Q00537 whole entry): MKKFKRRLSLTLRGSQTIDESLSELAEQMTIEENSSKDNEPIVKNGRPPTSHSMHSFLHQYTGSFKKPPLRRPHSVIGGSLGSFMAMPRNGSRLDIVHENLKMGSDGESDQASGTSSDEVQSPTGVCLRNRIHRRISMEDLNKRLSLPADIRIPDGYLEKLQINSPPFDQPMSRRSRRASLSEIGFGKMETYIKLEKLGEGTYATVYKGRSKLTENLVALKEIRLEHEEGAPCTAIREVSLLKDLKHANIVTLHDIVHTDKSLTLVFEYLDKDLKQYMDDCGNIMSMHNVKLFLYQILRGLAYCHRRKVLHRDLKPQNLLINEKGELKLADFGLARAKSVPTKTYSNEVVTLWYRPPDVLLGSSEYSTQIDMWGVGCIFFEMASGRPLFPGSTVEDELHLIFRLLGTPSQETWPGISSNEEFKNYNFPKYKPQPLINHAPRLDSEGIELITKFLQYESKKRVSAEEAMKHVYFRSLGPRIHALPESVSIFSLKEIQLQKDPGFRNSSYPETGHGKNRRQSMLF

[6] = target: Glycogen synthase kinase-3 beta (Homo sapiens, UniProt P49841)
Chain of Glycogen synthase kinase-3 beta (P49841 whole entry): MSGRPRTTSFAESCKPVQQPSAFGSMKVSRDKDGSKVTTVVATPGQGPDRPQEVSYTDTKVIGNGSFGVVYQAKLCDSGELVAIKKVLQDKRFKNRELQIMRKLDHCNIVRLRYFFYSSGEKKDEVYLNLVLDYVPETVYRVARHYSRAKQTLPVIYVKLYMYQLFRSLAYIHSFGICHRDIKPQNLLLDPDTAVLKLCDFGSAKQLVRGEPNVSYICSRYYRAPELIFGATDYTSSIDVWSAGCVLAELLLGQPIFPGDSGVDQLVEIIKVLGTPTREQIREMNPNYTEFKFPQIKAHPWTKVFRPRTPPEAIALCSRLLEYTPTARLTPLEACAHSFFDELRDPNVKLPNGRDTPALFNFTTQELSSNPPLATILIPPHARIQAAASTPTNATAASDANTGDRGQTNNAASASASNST

[7] = target: Membrane-associated progesterone receptor component 1 (Homo sapiens, UniProt O00264)
Chain of Membrane-associated progesterone receptor component 1 (O00264 whole entry): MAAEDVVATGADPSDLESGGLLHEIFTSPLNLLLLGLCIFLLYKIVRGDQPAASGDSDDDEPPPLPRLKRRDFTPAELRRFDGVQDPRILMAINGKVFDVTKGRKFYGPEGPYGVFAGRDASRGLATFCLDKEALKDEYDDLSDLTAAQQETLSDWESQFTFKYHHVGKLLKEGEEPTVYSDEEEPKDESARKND

Measured: Kd
Also: in the data inactive means no Kd found up to 30 µM.

C[C@@H]1COC(Nc2ccc3ncnc(Nc4ccc(OCc5nccs5)c(Cl)c4)c3c2)=N1 [VARLITINIB]
inactive: Ephrin type-A receptor 1 > 30 µM | [1] > 30 µM | [2] > 30 µM | [3] > 30 µM | [4] > 30 µM | [5] > 30 µM | [6] > 30 µM | [7] > 30 µM

Cc1cc(Nc2nc(N[C@@H](C)c3ncc(F)cn3)ncc2Cl)n[nH]1 [AZD-1480]
inactive: Ephrin type-A receptor 1 > 30 µM | [1] > 30 µM | [2] > 30 µM | [3] > 30 µM | [5] > 30 µM | [6] > 30 µM | [7] > 30 µM
active: [4] 1.68 µM
